Experimental data published in US20250107533A1, “FUNGICIDAL COMPOSITIONS” (SYNGENTA CROP PROTECTION AG, priority 2021, published 2025).

System: Phakopsora pachyrhizi
Experiment: Soybean leaf disk test against Asian soybean rust (Example 1)
Assay type: in vivo
Conditions: soybean leaf disks, assessed 12 days after inoculation; for inhibition at 0.74 ppm / inhibition at 2.22 ppm / inhibition at 0.25 ppm: Phakopsora pachyrhizi, foliar, 288 h, component (B) alone; for (A) inhibition: Aureobasidin A alone
Method: The compositions according to the invention are tested for their biological (fungicidal) activity using application rates wherein the component (A) is applied at a rate of from 25 g a.i./ha to 500 g a.i./ha in association with 10 g a.i./ha to 500 g a.i./ha of component (B).
The compositions according to the invention are tested for their biological (fungicidal) activity as dimethylsulfoxide (DMSO) solutions the protocols as set forth in the examples below. A standard description of the liquid culture tests is provided in Example 1.
Compounds to be tested were prepared as DMSO solutions (max. 10 mg/mL) which were diluted to the appropriate concentration with 0.025% TWEEN 20® surfactant just before spraying. Soybean leaf disks were placed on agar in multiwell plates (24-well format) and sprayed with test solutions. After 24 hours drying, the leaf disks were inoculated with a spore suspension of the fungus. The disease severity of a compound or mixture was assessed 12 days after inoculation and described as percent activity relative to the untreated check leaf disks.

Molecule | inhibition at 0.74 ppm [%] | inhibition at 2.22 ppm [%] | inhibition at 0.25 ppm [%] | (A) inhibition (2.5 ppm) [%] | (A) inhibition (7.4 ppm) [%]
CCOC(=O)c1cnn(Cc2ccc(-c3noc(C(F)(F)F)n3)cc2)c1 [B.01, ethyl 1-[[4-[5-(trifluoromethyl)-1,2,4-oxadiazol-3-yl]phenyl]methyl]pyrazole-4-carboxylate] | 50 | – | – | – | –
CON(Cc1ccc(-c2noc(C(F)(F)F)n2)cc1)C(=O)C1CC1 [B.02, N-methoxy-N-[[4-[5-(trifluoromethyl)-1,2,4-oxadiazol-3-yl]phenyl]methyl]cyclopropanecarboxamide] | 10 | 35 | – | – | –
COC(C)C(=O)N(Cc1ccc(-c2noc(C(F)(F)F)n2)cc1)OC (stereo not shown) [B.03, N,2-dimethoxy-N-[[4-[5-(trifluoromethyl)-1,2,4-oxadiazol-3-yl]phenyl]methyl]propanamide] | 10 | 35 | – | – | –
CCN(Cc1ccc(-c2noc(C(F)(F)F)n2)cc1)C(=O)C(C)C [B.04, N-ethyl-2-methyl-N-[[4-[5-(trifluoromethyl)-1,2,4-oxadiazol-3-yl]phenyl]methyl]propanamide] | 0 | 35 | 0 | – | –
CNC(=O)N(Cc1ccc(-c2noc(C(F)(F)F)n2)cc1)OC [B.05, 1-methoxy-3-methyl-1-[[4-[5-(trifluoromethyl)-1,2,4-oxadiazol-3-yl]phenyl]methyl]urea] | 50 | – | 0 | – | –
CONC(=O)N(Cc1ccc(-c2noc(C(F)(F)F)n2)cc1)OC [B.06, 1,3-dimethoxy-1-[[4-[5-(trifluoromethyl)-1,2,4-oxadiazol-3-yl]phenyl]methyl]urea] | 0 | – | 0 | – | –
CCNC(=O)N(Cc1ccc(-c2noc(C(F)(F)F)n2)cc1)OC [B.07, 3-ethyl-1-methoxy-1-[[4-[5-(trifluoromethyl)-1,2,4-oxadiazol-3-yl]phenyl]methyl]urea] | 35 | – | 0 | – | –
CCC(=O)NCc1ccc(-c2noc(C(F)(F)F)n2)cc1 [B.08, N-[[4-[5-(trifluoromethyl)-1,2,4-oxadiazol-3-yl]phenyl]methyl]propanamide] | 20 | 60 | 0 | – | –
Aureobasidin A | – | – | – | 62 | 88
